Measured values from paper PMC12114796, “Self-Assembled Cannabigerol-Based Nanoparticles: Design, Synthesis, and Antiproliferative Activity” (Pharmaceutics, 2025).
Read-outs that look alike come from different tables or passages of the source.

Key:
[1] = test system: MeT-5A (human mesothelium, non-tumorigenic) cells; experiment: Cell viability, trypan blue dye exclusion assay (antiproliferative activity); format: cell-based; conditions: 72 h
Method: (§1) The cell lines used in our study were purchased from ATCC (American Type Culture Collection). […] LN229 (human glioblastoma) cells were cultured in DMEM (D2902, Merck) supplemented with 3.5 g/L glucose and 5% FCS. NaHCO3 (S5761, Merck), as indicated in the manufacturer’s instructions, 100 U/mL penicillin, 100 μg/mL streptomycin, and 0.25 μg/mL amphotericin B (A5955, Merck) were added to the culture media. The cells were maintained at 37 °C in a humidified atmosphere incubator containing 5% carbon dioxide in air.
(§2) The cell viability was analyzed by a trypan blue dye exclusion assay. Briefly, 3–4 × 10^4 cells were seeded in each well of a 24-well cell culture plate and treated with test drugs or NPs at concentrations ranging from 1 to 30 nM and from 0.01 to 20 μM, respectively, after 24 of growth in standard conditions. After 72 h from the treatment, the cells were detached by trypsinization and counted by optical microscope.

[2] = test system: HT-29 (human colorectal adenocarcinoma) cells; experiment: as above; format: cell-based; conditions: HT-29, 72 h
Method: as §1, §2

[3] = test system: MSTO-211H (human biphasic mesothelioma) cells; experiment: as above; format: cell-based; conditions: 72 h
Method: as §1, §2

[4] = test system: LN229 (human glioblastoma) cells; experiment: as above; format: cell-based
Method: as §1, §2

[5] = test system: LN229, HT-29, MSTO-211H and MeT-5A cells; experiment: Antiproliferative activity compared across the cell line panel; format: cell-based; conditions: Homo sapiens; all four cell lines, 72 h; read-out: GI50 values (range over the cell lines)
Method: The cell lines used in our study were purchased from ATCC (American Type Culture Collection). Specifically, we used LN-229 (ATCC CRL-2611), HT-29 (ATCC HTB-38), and MSTO-211H (ATCC CRL-2081). MeT-5A (ATCC CRL-9444), MSTO-211H (human biphasic mesothelioma), and Met-5A (human mesothelium) cells were grown in RPMI 1640 (R6504, Merck) supplemented with 2.38 g/L Hepes (H3375, Merck, St. Louis, MO, USA), 0.11 g/L pyruvate sodium (P5280, Merck), 2.5 g/L glucose (G6152, Merck), and 10% heat-inactivated fetal calf serum (FCS, F7524, Merck). HT-29 (human colorectal adenocarcinoma) cells were grown in RPMI 1640 (R6504, Merck) supplemented with 10% heat-inactivated FCS. LN229 (human glioblastoma) cells were cultured in DMEM (D2902, Merck) supplemented with 3.5 g/L glucose and 5% FCS. NaHCO3 (S5761, Merck), as indicated in the manufacturer’s instructions, 100 U/mL penicillin, 100 μg/mL streptomycin, and 0.25 μg/mL amphotericin B (A5955, Merck) were added to the culture media. The cells were maintained at 37 °C in a humidified atmosphere incubator containing 5% carbon dioxide in air.
The cell viability was analyzed by a trypan blue dye exclusion assay. […] After 72 h from the treatment, the cells were detached by trypsinization and counted by optical microscope. […]

LN229 cells = experiment: Cell cycle analysis by flow cytometry (propidium iodide); format: cell-based, human; conditions: LN229, 48 h
Method: A total of 2 × 10^5 LN229 cells were seeded in Petri culture plates, left to grow for 24 h in standard conditions, and then treated with CPT and Np3b at the indicated concentrations. After 48 h, the cells were harvested, centrifuged, combined with ice-cold 70% w/v ethanol, and left at 4 °C for 20 min. Then, the cells were centrifuged, and the pellet was resuspended in a final volume of 300 μL PBS containing 0.1 mg mL^−1 RNAse (R6513, Merck) and […] propidium iodide (P4170, Merck). The DNA content was quantified by a BD FACSAria III flow cytometer (BD Life Sciences) and the data were analyzed by BD FACSDiva software (version 9.0). Statistical analysis was performed by Student’s t-test.

[6] = test system: microtubules in LN229 cells; experiment: Confocal microscopy of microtubule status (anti-β-tubulin staining); format: cell-based, human; conditions: LN229, 4 h; Desa 3 µM, Np1b 200 µM, PTX and Np2b at indicated concentrations
Method: LN229 cells (3 × 10^4) were seeded in 4-well cell culture chamber on a glass slide and cultured up to 50–60% confluence. […] After incubation, the cells were gently washed twice with PBS, fixed with 4% formaldehyde at room temperature for 15 min, washed twice with PBS, and permeabilized with 0.1% Triton X-100 (T8787, Merck) in PBS for 5 min in the dark. Again, the cells were washed twice with PBS and incubated for 30 min in the dark with 7% FCS in PBS. […] After washing twice with PBS, 0.001 mg/mL DAPI (MBD0015, Merck) was added for 15 min, then the cells were washed with PBS, and the coverslips were mounted on glass slides using Fluoroshield^TM (F6182, Merck). […] Particle counting and size distribution were estimated using the built-in Analyze Particles plugin in Image J (Fiji).

Row | SMILES | GI50 [1] [nM] | GI50 [2] [nM] | GI50 [3] [nM] | GI50 ([4]; LN-229, 72 h) [nM] | GI50 [5] [nM] | GI50 ([1]; mean ± SD, read-out: GI50) [nM] | GI50 ([2]; mean ± SD, read-out: GI50) [nM] | GI50 ([3]; mean ± SD, read-out: GI50) [nM] | GI50 ([4]; LN-229, LN229, 72 h, mean ± SD, read-out: GI50) [nM] | cells in G2/M phase (LN229 cells; 20 nM CPT (control 11.7%)) [%] | cells in G1 phase (LN229 cells; 20 nM CPT (control 69.4%)) [%] | effect on microtubule network [6]
1 | CCCCCc1cc(O)c(C/C=C(\C)CCC=C(C)C)c(O)c1 [CBG, Cannabigerol] | 16000 ± 2000 | 9700 ± 200 | 16000 ± 2000 | 5900 ± 1300 | 5900 to 16000 |  |  |  |  |  |  | 
2 | CC[C@@]1(O)C(=O)OCc2c1cc1n(c2=O)Cc2cc3ccccc3nc2-1 [CPT, camptothecin] |  |  |  |  |  | 7.8 ± 0.2 | 7.9 ± 0.8 | 3.3 ± 1 | 7.9 ± 0.1 | 33.4 | 49.4 | 
3 | CC(=O)O[C@H]1C(=O)[C@@]2(C)[C@H]([C@H](OC(=O)c3ccccc3)[C@]3(O)C[C@H](OC(=O)[C@H](O)[C@@H](NC(=O)c4ccccc4)c4ccccc4)C(C)=C1C3(C)C)[C@]1(OC(C)=O)CO[C@@H]1C[C@@H]2O [PTX, paclitaxel] | 4.4 ± 0.1 | 2.8 ± 0.2 | 3.3 ± 0.6 | 4.2 ± 0.7 |  |  |  |  |  |  |  | polymerizing effect
